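Tested at 5 concentrations; 48 h exposure; 96-well plates; endpoints linearly interpolated, else capped at highest concentration. The concentration for 50% growth inhibition is given as GI50.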 Activity calls are given as the source filed them. Rule as the data show it: active = GI50 up to about 1.1 µM and inactive = higher.
Columns and labels:
Test in all cases: NCI tumour cell line growth inhibition, 48 h
786-0 = tested on: 786-0
A549 = tested on: A549
ACHN = tested on: ACHN
BT-549 = tested on: BT-549
CAKI-1 = tested on: CAKI-1
CCRF-CEM = tested on: CCRF-CEM
COLO 205 = tested on: COLO 205
DU-145 = tested on: DU-145
HCC 2998 = tested on: HCC 2998
HCT-116 = tested on: HCT-116
HCT-15 = tested on: HCT-15
HL-60 = tested on: HL-60
HOP-62 = tested on: HOP-62
HOP-92 = tested on: HOP-92
HT-29 = tested on: HT-29
Hs-578T = tested on: Hs-578T
IGROV-1 = tested on: IGROV-1
K562 = tested on: K562
KM12 = tested on: KM12
LOX IMVI = tested on: LOX IMVI
M14 = tested on: M14
MCF7 = tested on: MCF7
MDA-MB-231 = tested on: MDA-MB-231
MDA-MB-435 = tested on: MDA-MB-435
MDA-N = tested on: MDA-N
Malme-3M = tested on: Malme-3M
NCI-H23 = tested on: NCI-H23
NCI-H522 = tested on: NCI-H522
NCI/ADR-RES = tested on: NCI/ADR-RES
OVCAR-3 = tested on: OVCAR-3
OVCAR-4 = tested on: OVCAR-4
OVCAR-5 = tested on: OVCAR-5
OVCAR-8 = tested on: OVCAR-8
PC-3 = tested on: PC-3
RPMI-8226 = tested on: RPMI-8226
SF-268 = tested on: SF-268
SF-295 = tested on: SF-295
SF-539 = tested on: SF-539
SK-MEL-28 = tested on: SK-MEL-28
SK-MEL-5 = tested on: SK-MEL-5
SK-OV-3 = tested on: SK-OV-3
SN12C = tested on: SN12C
SNB-19 = tested on: SNB-19
SNB-75 = tested on: SNB-75
SR = tested on: SR
SW-620 = tested on: SW-620
T47D = tested on: T47D
TK-10 = tested on: TK-10
U-251 = tested on: U-251
UACC-257 = tested on: UACC-257
UACC-62 = tested on: UACC-62
MOLT-4 = tested on: MOLT-4
NCI-H460 = tested on: NCI-H460
RXF 393 = tested on: RXF 393
UO-31 = tested on: UO-31
EKVX = tested on: EKVX
SK-MEL-2 = tested on: SK-MEL-2

Measured: GI50

CCCC(=O)Nc1cc2c3c(c1)CCCN3CCC2
inactive: 786-0 > 10 µM | A549 > 10 µM | ACHN > 10 µM | BT-549 > 10 µM | CAKI-1 > 10 µM | CCRF-CEM > 10 µM | COLO 205 > 10 µM | DU-145 > 10 µM | HCC 2998 > 10 µM | HCT-116 > 10 µM | HL-60 > 10 µM | HOP-62 > 10 µM | HOP-92 > 10 µM | HT-29 > 10 µM | Hs-578T > 10 µM | IGROV-1 > 10 µM | K562 > 10 µM | KM12 > 10 µM | LOX IMVI > 10 µM | M14 > 10 µM | MCF7 6.08 µM | MDA-MB-231 > 10 µM | MDA-MB-435 > 10 µM | MDA-N > 10 µM | Malme-3M > 10 µM | NCI-H23 3.77 µM | NCI-H522 > 10 µM | NCI/ADR-RES > 10 µM | OVCAR-3 > 10 µM | OVCAR-4 > 10 µM | OVCAR-5 > 10 µM | OVCAR-8 > 10 µM | PC-3 > 10 µM | RPMI-8226 > 10 µM | SF-268 > 10 µM | SF-295 > 10 µM | SF-539 > 10 µM | SK-MEL-28 > 10 µM | SK-MEL-5 > 10 µM | SK-OV-3 9.66 µM | SN12C > 10 µM | SNB-19 > 10 µM | SNB-75 > 10 µM | SR > 10 µM | SW-620 > 10 µM | T47D 6.01 µM | TK-10 > 10 µM | U-251 > 10 µM | UACC-257 > 10 µM | UACC-62 > 10 µM
> 10 µM: HCT-15

CC(=O)OCC1OC(n2c(C)c(/N=N/c3ccc(C)cc3)c(C)c(C#N)c2=S)C(OC(C)=O)C(OC(C)=O)C1OC(C)=O (stereo not drawn)
active: HOP-92 0.895 µM
inactive: 786-0 27.4 µM | A549 > 100 µM | ACHN > 100 µM | BT-549 > 100 µM | CAKI-1 > 100 µM | CCRF-CEM > 100 µM | COLO 205 > 100 µM | DU-145 > 100 µM | HCC 2998 > 100 µM | HCT-116 > 100 µM | HL-60 > 100 µM | HOP-62 > 100 µM | HT-29 > 100 µM | Hs-578T 23.5 µM | IGROV-1 > 100 µM | K562 > 100 µM | KM12 > 100 µM | LOX IMVI > 100 µM | M14 48.6 µM | MCF7 > 100 µM | MDA-MB-231 48.6 µM | MDA-MB-435 > 100 µM | MDA-N > 100 µM | MOLT-4 > 100 µM | Malme-3M 79.3 µM | NCI-H23 > 100 µM | NCI-H460 > 100 µM | NCI/ADR-RES > 100 µM | OVCAR-3 > 100 µM | OVCAR-4 41.4 µM | OVCAR-5 > 100 µM | PC-3 > 100 µM | RPMI-8226 > 100 µM | RXF 393 > 100 µM | SF-268 > 100 µM | SF-295 90.6 µM | SF-539 39.3 µM | SK-MEL-28 > 100 µM | SK-MEL-5 43.2 µM | SK-OV-3 > 100 µM | SN12C > 100 µM | SNB-19 > 100 µM | SNB-75 60.4 µM | SR > 100 µM | SW-620 > 100 µM | T47D > 100 µM | TK-10 > 100 µM | U-251 > 100 µM | UACC-257 > 100 µM | UACC-62 50.2 µM | UO-31 > 100 µM

Clc1sc(Cl)c2c1[C@H](Br)C[C@@H]2Cl
inactive: 786-0 32.9 µM | A549 32.9 µM | ACHN 18.8 µM | BT-549 18.2 µM | CAKI-1 26.2 µM | CCRF-CEM 17.5 µM | COLO 205 20.1 µM | DU-145 33.7 µM | EKVX 35.9 µM | HCC 2998 37.8 µM | HCT-116 27.9 µM | HOP-62 83.9 µM | HT-29 35 µM | Hs-578T 22.8 µM | IGROV-1 13.2 µM | K562 38.5 µM | KM12 39.8 µM | LOX IMVI 18.2 µM | M14 20.3 µM | MCF7 12.5 µM | MDA-MB-231 21.4 µM | MDA-MB-435 18.4 µM | MDA-N 41.7 µM | MOLT-4 19.1 µM | Malme-3M 21.9 µM | NCI-H23 17.8 µM | NCI-H460 41.6 µM | NCI-H522 16.9 µM | NCI/ADR-RES 17.7 µM | OVCAR-3 23.8 µM | OVCAR-4 55.8 µM | OVCAR-5 > 100 µM | OVCAR-8 27.6 µM | PC-3 40.3 µM | RPMI-8226 30.2 µM | RXF 393 26 µM | SF-268 23 µM | SF-295 99.5 µM | SF-539 15.8 µM | SK-MEL-28 29 µM | SK-MEL-2 59.8 µM | SK-MEL-5 46.9 µM | SK-OV-3 > 100 µM | SN12C 29.5 µM | SNB-19 57.7 µM | SNB-75 > 100 µM | SR 15.7 µM | SW-620 21.6 µM | T47D 36.4 µM | TK-10 33.7 µM | U-251 27.7 µM | UACC-257 29.4 µM | UACC-62 20.9 µM | UO-31 18.3 µM
17.1 µM: HCT-15

From ChEMBL document CHEMBL1201862, “PubChem BioAssay data set” (2004)
